The source of these data is patent publication US4288449A, “N-Arylsulfonylpyrroles, their preparation, and therapeutic agents containing these compounds” (BASF Aktiengesellschaft, priority 1978, dated 1981).

A short description of series [1]: Diuretic action after oral administration (excretion of electrolyte and of water). Type of series: in vivo, dog (male beagles). Conditions: for Na^+/K^+ quotient / Excretion of electrolyte: Na^+ / Excretion of water: H2 O / Excretion of electrolyte: K^+ / Excretion of electrolyte: Cl^- / times more active than Furosemid / Na^+ excretion between the 2nd and 6th hours after administration: dog, oral; for Na^+/K^+ quotient: control 1.0; for Excretion of electrolyte: Na^+: dose mg/kg: 9 0.464, 15 0.215, 114 0.1, 116 0.1, 120 0.215, Furosemid 1.0; for times more active than Furosemid: by doses giving Na^+ and H2 O excretion similar to Furosemid; for Na^+ excretion between the 2nd and 6th hours after administration / diuretic action: in words. As for the experimental part:
The diuretic action was determined on male beagles weighing from 10 to 15 kg.
The animals are kept without food for 18 hours before starting the experiment. 2 hours before administration of the test substance, they are given 20 ml/kg of water orally. The test substances are administered orally as a tragacanth suspension. Thereafter, 4 ml/kg of water are administered 6 times at intervals of 1 hour.
Urine samples are taken by catheterization at intervals of 2 hours, over a period of 6 hours. […]

The next series is described as follows: in vivo. Particulars: mouse, po. As for the experimental part:
To determine the acute toxicity, the substances are administered orally to groups of 10 female mice of the NMRI strain, weighing from 20 to 23 g. The mean lethal dose (LD 50) is determined after a period of observation of 72 hours.

The mark [2] stands for this setting: 2 hours, doses as E1, control 9,3.
Setting [3] is: 2 hours, doses as E1, control 67.
Setting [4] is: 2 hours, doses as E1, control 81.
Where [5] appears, read: 6 hours, doses as E6, control 27.
Setting [6] is: 6 hours, doses as E6, control 184.
Setting [7] is: 6 hours, doses as E6, control 238.

As for `NS(=O)(=O)c1cc(C(=O)O)c(NCc2ccco2)cc1Cl` [Furosemid, 4-chloro-N-(2-furylmethyl)-5-sulfamylanthranilic acid, reference compound], in series [1] (2 hours, doses as E1), the “Na^+/K^+ quotient” value is 3.1.

Consider `Cc1ccc(C)n1S(=O)(=O)c1cc(C(=O)O)cc(NCc2ccsc2)c1Nc1ccccc1` [Example 120], for which the Excretion of electrolyte: Na^+ in series [1] (2 hours, control 66) is 1260 µval/kg; in series [1] (6 hours, control 212), 2,050 μval/kg. The “Na^+/K^+ quotient” value in series [1] (2 hours, doses as E1) came out at 5.6. Besides, the “Excretion of water: H2 O” value was 19 mL/kg in series [1] (setting [2]) and 41 mL/kg in series [1] (setting [5]). Besides, the figures for the “Excretion of electrolyte: K^+” value in series [1] (setting [3]) and in series [1] (setting [6]) were 227 μval/kg and 527 μval/kg, respectively. For the same compound, the figures for the “Excretion of electrolyte: Cl^-” value in series [1] (setting [4]) and in series [1] (setting [7]) were 1,600 μval/kg and 2,760 μval/kg, respectively. In addition, the LD50 (as a rule, the dose expected to kill half of the subjects tested) at 72 h in “in vivo” is greater than 2150 mg/kg. Besides, the selectivity ratio in “in vivo” was greater than 10000.

Turning to `CCc1ccc(CC)n1S(=O)(=O)c1cc(C(=O)O)cc(NCc2ccsc2)c1Oc1ccccc1` [Example 114], the Excretion of electrolyte: Na^+ in series [1] (2 hours, control 66) is 1410 µval/kg; in series [1] (6 hours, control 212), 1,640 μval/kg. The “Na^+/K^+ quotient” value in series [1] (2 hours, doses as E1) was 4.8. The “Excretion of water: H2 O” value is 26 mL/kg in series [1] (setting [2]) and 42 mL/kg in series [1] (setting [5]). Further, the “Excretion of electrolyte: K^+” value worked out at 295 μval/kg in series [1] (setting [3]) and 442 μval/kg in series [1] (setting [6]). For the same compound, the “Excretion of electrolyte: Cl^-” value in series [1] (setting [4]) was 1,780 μval/kg; in series [1] (setting [7]) it was 2,080 μval/kg. In series [1], the “times more active than Furosemid” value was 10 times. Moreover, the LD50 at 72 h in “in vivo” was greater than 2150 mg/kg. In addition, the selectivity ratio in “in vivo” was greater than 21500.

Turning to `O=C(O)c1cc(NCc2ccsc2)c(Oc2ccccc2)c(S(=O)(=O)n2cccc2)c1` [Example 15], the “Excretion of electrolyte: Na^+” value is listed as 1,240 μval/kg in series [1] (2 hours, control 66) and 1,940 μval/kg in series [1] (6 hours, control 212). The “Na^+/K^+ quotient” value in series [1] (2 hours, doses as E1) was determined as 3.7. In addition, the “Excretion of water: H2 O” value in series [1] (setting [2]) worked out at 23 mL/kg; in series [1] (setting [5]), 45 mL/kg. For the same compound, the “Excretion of electrolyte: K^+” value in series [1] (setting [3]) was 333 μval/kg; in series [1] (setting [6]), 642 μval/kg. Moreover, the “Excretion of electrolyte: Cl^-” value was 1,520 μval/kg in series [1] (setting [4]) and 2,440 μval/kg in series [1] (setting [7]). In addition, the “Na^+ excretion between the 2nd and 6th hours after administration” value in series [1] is recorded as “a distinct further increase in excretion”. In addition, the diuretic action entry in series [1] is reported as “not only better action, but also longer-lasting action, than Furosemid”. Besides, in “in vivo”, the LD50 at 72 h is 1470 mg/kg. Also, the selectivity ratio in “in vivo” came out at 6840.

On to `CCc1ccc(C)n1S(=O)(=O)c1cc(C(=O)O)cc(NCc2ccsc2)c1Oc1ccccc1` [Example 116], for which the “Excretion of electrolyte: Na^+” value in series [1] (2 hours, control 66) is recorded as 1,150 μval/kg; in series [1] (6 hours, control 212), 1,560 μval/kg. In addition, the “Na^+/K^+ quotient” value in series [1] (2 hours, doses as E1) was 4.2. In addition, the entries for the “Excretion of water: H2 O” value in series [1] (setting [2]) and in series [1] (setting [5]) were 22 mL/kg and 40 mL/kg, respectively. In addition, the entries for the “Excretion of electrolyte: K^+” value in series [1] (setting [3]) and in series [1] (setting [6]) were 271 μval/kg and 473 μval/kg, respectively. Also, the “Excretion of electrolyte: Cl^-” value in series [1] (setting [4]) is given as 1,510 μval/kg; in series [1] (setting [7]) it was 2,100 μval/kg. Also, the “times more active than Furosemid” value in series [1] amounted to 10 times. The LD50 at 72 h in “in vivo” was greater than 2150 mg/kg. Also, the selectivity ratio in “in vivo” was greater than 21500.

In the case of `O=C(O)c1cc(NCc2ccccc2)c(Oc2ccccc2)c(S(=O)(=O)n2cccc2)c1` [Example 9], the “Excretion of electrolyte: Na^+” value is 1,520 μval/kg in series [1] (2 hours, control 66) and 2930 µval/kg in series [1] (6 hours, control 212). For the same compound, the “Na^+/K^+ quotient” value in series [1] (2 hours, doses as E1) is recorded as 5.1. Also, the “Excretion of water: H2 O” value was found to be 27 mL/kg in series [1] (setting [2]) and 56 mL/kg in series [1] (setting [5]). In addition, the “Excretion of electrolyte: K^+” value in series [1] (setting [3]) amounted to 298 μval/kg; in series [1] (setting [6]) it was 810 μval/kg. The “Excretion of electrolyte: Cl^-” value in series [1] (setting [4]) is 1,940 μval/kg; in series [1] (setting [7]) it was 4,200 μval/kg. The “times more active than Furosemid” value in series [1] is on record as 2.2 times. Moreover, the “Na^+ excretion between the 2nd and 6th hours after administration” value in series [1] is listed as “a distinct further increase in excretion”. Further, the diuretic action entry in series [1] is listed as “not only better action, but also longer-lasting action, than Furosemid”. The compound also returned an LD50 at 72 h in “in vivo” of 957 mg/kg. Besides, in “in vivo”, the selectivity ratio was determined as 2060.
